Laboratory results from ChEMBL document CHEMBL5230135, “Peptide Ligands Specifically Targeting HER2 Receptor and the Role Played by a Synthetic Model System of the Receptor Extracellular Domain: Hypothesized Future Perspectives” (J Med Chem, 2020).
Where a SMILES comes first, the peptide text is derived from it.

Assays:
[1] = molecular target: T1, Receptor tyrosine-protein kinase erbB-2 (Homo sapiens, UniProt P04626); test: Binding affinity to HER2 in human BT-474 cells assessed as dissociation constant by measuring high affinity ligand binding site by LigandTracer technique; type: cell-based
T1 sequence (P04626 whole entry): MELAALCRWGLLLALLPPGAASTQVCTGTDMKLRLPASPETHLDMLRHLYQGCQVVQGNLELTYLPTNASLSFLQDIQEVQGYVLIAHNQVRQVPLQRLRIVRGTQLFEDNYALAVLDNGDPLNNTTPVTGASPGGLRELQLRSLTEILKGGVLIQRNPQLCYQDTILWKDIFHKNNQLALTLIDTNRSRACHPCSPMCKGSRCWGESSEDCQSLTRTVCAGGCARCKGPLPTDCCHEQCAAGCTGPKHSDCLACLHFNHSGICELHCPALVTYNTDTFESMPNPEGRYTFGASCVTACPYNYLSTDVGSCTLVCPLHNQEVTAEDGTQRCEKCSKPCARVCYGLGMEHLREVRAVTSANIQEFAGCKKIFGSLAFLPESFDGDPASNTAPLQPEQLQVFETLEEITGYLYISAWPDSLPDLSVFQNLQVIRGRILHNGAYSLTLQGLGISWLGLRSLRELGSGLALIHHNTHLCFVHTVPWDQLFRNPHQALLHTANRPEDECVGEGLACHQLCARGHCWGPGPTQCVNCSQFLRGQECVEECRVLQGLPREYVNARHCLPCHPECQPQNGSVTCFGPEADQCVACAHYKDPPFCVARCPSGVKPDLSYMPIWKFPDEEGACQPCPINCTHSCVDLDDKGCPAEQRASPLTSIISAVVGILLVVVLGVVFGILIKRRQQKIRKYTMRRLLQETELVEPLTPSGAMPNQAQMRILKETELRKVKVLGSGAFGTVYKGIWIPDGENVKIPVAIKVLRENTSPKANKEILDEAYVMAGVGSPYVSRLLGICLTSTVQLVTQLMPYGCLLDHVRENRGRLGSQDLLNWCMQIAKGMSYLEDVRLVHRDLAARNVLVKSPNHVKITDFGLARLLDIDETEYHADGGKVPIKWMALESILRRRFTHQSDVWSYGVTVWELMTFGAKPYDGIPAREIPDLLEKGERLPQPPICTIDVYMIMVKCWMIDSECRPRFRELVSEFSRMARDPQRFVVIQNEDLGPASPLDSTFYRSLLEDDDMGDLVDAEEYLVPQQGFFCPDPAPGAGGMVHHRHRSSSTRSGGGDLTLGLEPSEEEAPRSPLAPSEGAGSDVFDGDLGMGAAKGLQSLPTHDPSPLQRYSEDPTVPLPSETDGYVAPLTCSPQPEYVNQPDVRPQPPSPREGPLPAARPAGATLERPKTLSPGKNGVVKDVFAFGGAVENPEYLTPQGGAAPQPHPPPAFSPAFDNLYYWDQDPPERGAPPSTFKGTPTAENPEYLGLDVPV

[2] = molecular target: T1, Receptor tyrosine-protein kinase erbB-2; test: Binding affinity to HER2 in human BT474 cells assessed as dissociation constant by measuring low affinity ligand binding site by LigandTracer technique; type: cell-based, BT-474
[3] = Biodistribution in lung of BALB/c nu/nu mouse measured in organ after 1 hr; type: ADME, organism-based; settings: in vivo
[4] = Biodistribution in liver of BALB/c nu/nu mouse measured in organ after 1 hr; type: ADME, organism-based; settings: in vivo
[5] = Biodistribution in spleen of BALB/c nu/nu mouse measured in organ after 1 hr; type: ADME, organism-based; settings: in vivo
[6] = Biodistribution in stomach of BALB/c nu/nu mouse measured in organ after 1 hr; type: ADME, organism-based; settings: in vivo
[7] = Biodistribution in pancreas of BALB/c nu/nu mouse measured in organ after 1 hr; type: ADME, organism-based; settings: in vivo
[8] = Biodistribution in brain of BALB/c nu/nu mouse measured in organ after 1 hr; type: ADME, organism-based; settings: in vivo
[9] = Biodistribution in kidney of BALB/c nu/nu mouse measured in organ after 1 hr; type: ADME, organism-based; settings: in vivo
[10] = Biodistribution in muscle of BALB/c nu/nu mouse measured in organ after 1 hr; type: ADME, organism-based; settings: in vivo
[11] = Biodistribution in bone of BALB/c nu/nu mouse measured in organ after 1 hr; type: ADME, organism-based, Bone element; settings: in vivo
[12] = Biodistribution in Gastrointestinal tract of BALB/c nu/nu mouse measured in organ after 1 hr; type: ADME, organism-based; settings: in vivo
[13] = Biodistribution in Carcass of BALB/c nu/nu mouse measured in organ after 1 hr; type: ADME, organism-based; settings: in vivo

- Kd [1]: 4.9 nM
- Kd [2]: 103 nM
- Drug uptake [3]: 0.06 %ID
- Drug uptake [4]: 0.47 %ID
- Drug uptake [5]: 0.02 %ID
- Drug uptake [6]: 0.05 %ID
- Drug uptake [7]: 0.01 %ID
- Drug uptake [8]: 0 %ID
- Drug uptake [9]: 2 %ID
- Drug uptake [10]: 0.04 %ID
- Drug uptake [11]: 0.01 %ID
- Drug uptake [12]: 0.83 %ID
- Drug uptake [13]: 3.47 %ID
SMILES: CC(C)[C@H](NC(=O)[C@H](C)NC(=O)[C@@H](NC(=O)[C@H](CC(N)=O)NC(=O)[C@@H](NC(=O)[C@H](CC(=O)O)NC(=O)[C@H](CCC(N)=O)NC(=O)CN(CCN(CCN(CC(=O)O)CC(=O)O)CC(=O)O)CC(=O)O)C(C)C)[C@@H](C)O)C(=O)N[C@@H](C)C(=O)N[C@@H](Cc1c[nH]c2ccccc12)C(N)=O (HELM PEPTIDE1{[O=C(O)CN(CCN(CC(=O)O)CC(=O)O)CCN(CC(=O)O)CC(=O)[*:2]].Q.D.V.N.T.A.V.A.W.[am]}$$$$V2.0)
